{"source": "patent US11478478B2", "about": "“2,3-disubstituted 1-acyl-4-amino-1,2,3,4-tetrahydroquinoline derivatives and their use as bromodomain inhibitors” (GLAXOSMITHKLINE INTELLECTUAL PROPERTY (NO.2) LIMITED, priority 2013, dated 2022)"}
{"target": "T1, BRD4 BD2 (Homo sapiens, UniProt O60885, Y97A)", "T1 construct": "BRD4 (1-477) (Y97A) and (Y390A); made in house; host or cells: E. coli (pET15b vector)", "test": "TR-FRET binding assay, BRD4 BD2 (BD1-mutated protein)", "settings": "read-out: pIC50 in the BRD4 BD2 assay (converted)", "description": "Time Resolved Fluorescence Resonance Energy Transfer (TR-FRET) Assay Binding was assessed using a time resolved fluorescent resonance energy transfer binding assay. This utilises a 6 His purification tag at the N-terminal of the proteins as an epitope for an anti-6 His antibody labeled with Europium chelate (PerkinElmer AD0111) allowing binding of the Europium to the proteins which acts as the donor fluorophore. A small molecule, high affinity binder of the bromodomains BRD2, BRD3, BRD4 and BRDT has been labeled with Alexa Fluor647 (Reference Compound X) and this acts as the acceptor in the FRET pair.\nIn the absence of a competing compound, excitation of the Europium causes the donor to emit at λ618 nm which excites the Alexa labelled bromodomain binding compound leading to an increased energy transfer that is measurable at λ647 nM. In the presence of a sufficient concentration of a compound that can bind these proteins, the interaction is disrupted leading to a quantifiable drop in fluorescent resonance energy transfer.\nThe binding of the compounds of formula (I) to Bromodomains BRD2, BRD3, BRD4 and BRDT was assessed using mutated proteins to detect differential binding to either Binding Domain 1 (BD1) or Binding Domain 2 (BD2) on the bromodomain. These single residue mutations in the acetyl lysine binding pocket greatly lower the affinity of the fluoroligand (Reference Compound X) for the mutated domain (>1000 fold selective for the non-mutated domain). Therefore in the final assay conditions, binding of the fluoroligand to the mutated domain cannot be detected and subsequently the assay is suitable to determine the binding of compounds to the single non-mutated bromodomain.\nRecombinant Human Bromodomains [(BRD2 (1-473) (Y113A) and (Y386A), BRD3 (1-435) (Y73A) and (Y348A) BRD4 (1-477) (Y97A) and (Y390A) and BRDT (1-397) (Y66A) and (Y309A)] were expressed in E. coli cells (in pET15b vector for BRD2/3/4 and in pET28a vector for BRDT) with a 6-His tag at the N-terminal. The His-tagged Bromodomain pellet was resuspended in 50 mM HEPES (pH7.5), 300 mM NaCl, 10 mM imidazole & 1 μl/ml protease inhibitor cocktail and extracted from the E. coli cells using sonication and purified using a nickel sepharose high performance column, the proteins were washed and then eluted with a linear gradient of 0-500 mM imidazole with buffer 50 mM HEPES (pH7.5), 150 mM NaCl, 500 mM imidazole, over 20 column volumes. Final purification was completed by Superdex 200 prep grade size exclusion column. Purified protein was stored at −80° C. in 20 mM HEPES pH 7.5 and 100 mM NaCl. Protein identity was confirmed by peptide mass fingerprinting and predicted molecular weight confirmed by mass spectrometry.\nAll assay components were dissolved in buffer composition of 50 mM HEPES pH7.4, 50 mM NaCl, 5% Glycerol, 1 mM DTT and 1 mM CHAPS. The final concentration of bromodomain proteins were 10 nM and the Alexa Fluor647 ligand was at Kd. These components were premixed and 5 μl of this reaction mixture was added to all wells containing 50 nl of various concentrations of test compound or DMSO vehicle (0.5% DMSO final) in Greiner 384 well black low volume microtitre plates and incubated in dark for 30 minutes at rt. 5 μl of detection mixture containing 1.5 nM final concentration anti-6His Europium chelate was added to all wells and a further dark incubation of at least 30 minutes was performed. Plates were then read on the Envision platereader, (λex=317 nm, donor λem=615 nm; acceptor λem=665 nm; Dichroic LANCE dual). Time resolved fluorescent intensity measurements were made at both emission wavelengths and the ratio of acceptor/donor was calculated and used for data analysis. All data was normalized to the mean of 16 high (inhibitor control—Example 11 of WO 2011/054846A1) and 16 low (DMSO) control wells on each plate. A four parameter curve fit of the following form was then applied: y=a+((b−a)/(1+(10^/10^)^d) […]", "units": {"IC50": "nM"}}
{"smiles": "CC(=O)N1c2ccc(C(N)=O)cc2[C@H](Nc2ccc(Cl)cn2)[C@@H](C)[C@@H]1C1CC1", "note": "[Example 379, (2S,3R,4R)-1-acetyl-4-((5-chloropyridin-2-yl)amino)-2-cyclopropyl-3-methyl-1,2,3,4-tetrahydroquinoline-6-carboxamide]", "IC50": 100}
{"smiles": "CC(=O)N1c2ccc(C(N)=O)cc2[C@H](Nc2ccc(C#N)cc2)[C@@H](C)[C@@H]1C1CC1", "note": "[Example 378, (2S,3R,4R)-1-acetyl-4-((4-cyanophenyl)amino)-2-cyclopropyl-3-methyl-1,2,3,4-tetrahydroquinoline-6-carboxamide]", "IC50": 100}
{"smiles": "CC(=O)N1c2ccc(F)cc2[C@H](Nc2ccc(C#N)cc2)[C@@H](C)[C@@H]1C1CC1", "note": "(racemic) [Example 161, rac-4-(((2S,3R,4R)-1-acetyl-2-cyclopropyl-6-fluoro-3-methyl-1,2,3,4-tetrahydroquinolin-4-yl)amino)benzonitrile]", "IC50": 100}
{"smiles": "COc1cc(C#N)ccc1N[C@H]1c2cc(C(N)=O)ccc2N(C(C)=O)[C@@H](C2CC2)[C@@H]1C", "note": "[Example 390, (2S,3R,4R)-1-acetyl-4-((4-cyano-2-methoxyphenyl)amino)-2-cyclopropyl-3-methyl-1,2,3,4-tetrahydroquinoline-6-carboxamide]", "IC50": 100}
{"smiles": "CCNC(=O)c1ccc2c(c1)[C@H](Nc1cccc(C)n1)[C@@H](C)[C@H](C1CC1)N2C(C)=O", "note": "[Example 248, (2S,3R,4R)-1-acetyl-2-cyclopropyyl-N-ethyl-3-methyl-4-((6-methylpyridin-2-yl)amino)-1,2,3,4-tetrahydroquinoline-6-carboxamide]", "IC50": 100}
{"smiles": "CC(=O)N1c2ccccc2[C@H](Nc2ncccc2O)[C@@H](C)[C@@H]1C1CC1", "note": "(racemic) [Example 49, rac-1-((2S,3R,4R)-2-cyclopropyyl-4-((3-hydroxypyridin-2-yl)amino)-3-methyl-3,4-dihydroquinolin-1(2H)-yl)ethanone]", "IC50": "1000 to 100000"}
{"smiles": "CC(=O)N1c2ccccc2[C@H](Nc2ccc(C(=O)O)cc2)[C@@H](C)[C@@H]1C1CC1", "note": "(racemic) [Example 127, rac-4-(((2S,3R,4R)-1-acetyl-2-cyclopropyl-3-methyl-1,2,3,4-tetrahydroquinolin-4-yl)amino)benzoic acid]", "IC50": "1000 to 100000"}
{"smiles": "CC(=O)N1c2ccc(C#N)cc2[C@H](Nc2cccc(CN(C)C)n2)[C@@H](C)[C@@H]1C1CC1", "note": "[Example 298, (2S,3R,4R)-1-acetyl-2-cyclopropyl-4-((6-((dimethylamino)methyl)pyridin-2-yl)amino)-3-methyl-1,2,3,4-tetrahydroquinoline-6-carbonitrile]", "IC50": "1000 to 100000"}
{"smiles": "CC(=O)N1c2ccc(C(N)=O)cc2[C@H](Nc2ccc(C#N)cn2)[C@@H](C)[C@@H]1C1CC1", "note": "[Example 400, (2S,3R,4R)-1-acetyl-4-((5-cyanopyridin-2-yl)amino)-2-cyclopropyl-3-methyl-1,2,3,4-tetrahydroquinoline-6-carboxamide]", "IC50": 100}
{"smiles": "CC(=O)N1c2ccc(C(N)=O)cc2[C@H](Nc2cnc(C#N)c(Cl)c2)[C@@H](C)[C@@H]1C1CC1", "note": "[Example 391, (2S,3R,4R)-1-acetyl-4-((5-chloro-6-cyanopyridin-3-yl)amino)-2-cyclopropyl-3-methyl-1,2,3,4-tetrahydroquinoline-6-carboxamide]", "IC50": "1000 to 100000"}
{"smiles": "CC(=O)N1c2ccc(C(=O)NCCO)cc2[C@H](Nc2ccnc(C)n2)[C@@H](C)[C@@H]1C1CC1", "note": "[Example 441, (2S,3R,4R)-1-acetyl-2-cyclopropyl-N-(2-hydroxyethyl)-3-methyl-4-((2-methylpyrimidin-4-yl)amino)-1,2,3,4-tetrahydroquinoline-6-carboxamide]", "IC50": "1000 to 100000"}
{"smiles": "CC(=O)N1c2ccc(N3CCOC(C)C3)cc2[C@H](Nc2ccccc2)[C@@H](C)[C@@H]1C", "note": "(mixture of isomers) [Example 77, 1-((rac-2S,3R,4R)-2,3-dimethyl-6-(2-methylmorpholino)-4-(phenylamino)-3,4-dihydroquinolin-1(2H)-yl)ethanone]", "IC50": 100}
{"smiles": "COC[C@H]1[C@H](C)[C@@H](Nc2ccccc2)c2ccccc2N1C(C)=O", "note": "(racemic) [Example 54, rac-1-((2R,3R,4R)-2-(methoxymethyl)-3-methyl-4-(phenylamino)-3,4-dihydroquinolin-1(2H)-yl)ethanone]", "IC50": "1000 to 100000"}
{"smiles": "CCc1ccnc(N[C@H]2c3cc(C(N)=O)ccc3N(C(C)=O)[C@@H](C3CC3)[C@@H]2C)n1", "note": "[Example 407, (2S,3R,4R)-1-acetyl-2-cyclopropyl-4-((4-ethylpyrimidin-2-yl)amino)-3-methyl-1,2,3,4-tetrahydroquinoline-6-carboxamide]", "IC50": 100}
{"smiles": "CC[C@H]1[C@H](C)[C@@H](Nc2ccc(C#N)cc2)c2cc(C(=O)O)ccc2N1C(C)=O", "note": "[Example 331, (2S,3R,4R)-1-acetyl-4-((4-cyanophenyl)amino)-2-ethyl-3-methyl-1,2,3,4-tetrahydroquinoline-6-carboxylic acid]", "IC50": 100}
{"smiles": "CC(=O)N1c2ccc(F)cc2[C@H](Nc2ccc(F)cn2)[C@@H](C)[C@@H]1C", "note": "(racemic) [Example 141, rac-1-((2S,3R,4R)-6-fluoro-4-((5-fluoropyridin-2-yl)amino)-2,3-dimethyl-3,4-dihydroquinolin-1(2H)-yl)ethanone]", "IC50": 100}
{"smiles": "CC(=O)N1c2ccc(C3=CCNCC3)cc2[C@@H](Nc2cccc(C)n2)[C@H](C)[C@H]1C1CC1", "note": "(single isomer, unassigned) [Example 189b]", "IC50": "1000 to 100000"}
{"smiles": "CC(=O)N1c2ccc(C(N)=O)cc2[C@H](Nc2cccc(CO)n2)[C@@H](C)[C@@H]1C1CC1", "note": "[Example 350, (2S,3R,4R)-1-acetyl-2-cyclopropyl-4-((6-(hydroxymethyl)pyridin-2-yl)amino)-3-methyl-1,2,3,4-tetrahydroquinoline-6-carboxamide]", "IC50": 100}
{"smiles": "CC(=O)N1c2ccc(F)cc2[C@H](Nc2ccnc(O)n2)[C@@H](C)[C@@H]1C1CC1", "note": "[Example 519, 1-((2S,3R,4R)-2-cyclopropyl-6-fluoro-4-((2-hydroxypyrimidin-4-yl)amino)-3-methyl-3,4-dihydroquinolin-1(2H)-yl)ethanone]", "IC50": "1000 to 100000"}
{"smiles": "CC(=O)N1c2ccc(N3CCNC(C)C3)nc2[C@H](Nc2ccccc2)[C@@H](C)[C@@H]1C1CC1", "note": "(mixture of isomers) [Example 107, 1-((rac-2S,3R,4R)-2-cyclopropyyl-3-methyl-6-(3-methylpiperazin-1-yl)-4-(phenylamino)-3,4-dihydro-1,5-naphthyridin-1(2H)-yl)ethanone]", "IC50": "1000 to 100000"}
{"smiles": "CC(=O)N1c2ccc(C(=O)NC3COC3)cc2[C@H](Nc2ncccn2)[C@@H](C)[C@@H]1C1CC1", "note": "[Example 488, (2S,3R,4R)-1-acetyl-2-cyclopropyl-3-methyl-N-(oxetan-3-yl)-4-(pyrimidin-2-ylamino)-1,2,3,4-tetrahydroquinoline-6-carboxamide]", "IC50": 100}
{"smiles": "CC(=O)N1c2ccc(C(=O)NC3CCOCC3)cc2[C@H](Nc2ccc(F)cn2)[C@@H](C)[C@@H]1C1CC1", "note": "[Example 469, (2S,3R,4R)-1-acetyl-2-cyclopropyl-4-((5-fluoropyridin-2-yl)amino)-3-methyl-N-(tetrahydro-2H-pyran-4-yl)-1,2,3,4-tetrahydroquinoline-6-carboxamide]", "IC50": 100}
{"smiles": "COCCNC(=O)c1ccc2c(c1)[C@H](Nc1ccc(F)cn1)[C@@H](C)[C@H](C1CC1)N2C(C)=O", "note": "[Example 471, (2S,3R,4R)-1-acetyl-2-cyclopropyl-4-((5-fluoropyridin-2-yl)amino)-N-(2-methoxyethyl)-3-methyl-1,2,3,4-tetrahydroquinoline-6-carboxamide]", "IC50": 100}
